Tests used:
Test in all cases: relative viability (nuclei count vs DMSO), 5 days (fraction); higher = more cells survive
XMD13-2 + Trametinib = compound: C1CC1C(=O)NC2=NNC3=C2C=CC(=C3)C4=CC(=CC=C4)C(=O)NC5CC5 [XMD13-2] + CC(=O)Nc1cccc(-n2c(=O)n(C3CC3)c(=O)c3c(Nc4ccc(I)cc4F)n(C)c(=O)c(C)c32)c1 [Trametinib] (partner 0.02 µM)
In short: (§1)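 One day after seeding in 1536-well plates, lung cancer cell lines were dosed by pin tool. Dosing was either single-drug or a fixed anchor-drug dose plus five library-drug doses (not always all listed) in √10 steps. After 5 days, nuclei were stained in one fix-and-stain step and counted on 4× images, and relative viability is the nuclei count of treated wells over that of vehicle wells, given as the median of duplicate plates.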

ALW-II-49-7 + Navitoclax = compound: Cc1ccc(C(=O)Nc2cccc(C(F)(F)F)c2)cc1Nc1cncc(C(N)=O)c1 [ALW-II-49-7] + CC1(C)CCC(c2ccc(Cl)cc2)=C(CN2CCN(c3ccc(C(=O)NS(=O)(=O)c4ccc(N[C@H](CCN5CCOCC5)CSc5ccccc5)c(S(=O)(=O)C(F)(F)F)c4)cc3)CC2)C1 [Navitoclax] (partner 0.5 µM)
In short: as §1

Dasatinib + Pictilisib = compound: Cc1nc(Nc2ncc(C(=O)Nc3c(C)cccc3Cl)s2)cc(N2CCN(CCO)CC2)n1 [Dasatinib] + CS(=O)(=O)N1CCN(Cc2cc3nc(-c4cccc5[nH]ncc45)nc(N4CCOCC4)c3s2)CC1 [Pictilisib] (partner 1 µM)
In short: as §1

Dasatinib + Linsitinib = compound: Cc1nc(Nc2ncc(C(=O)Nc3c(C)cccc3Cl)s2)cc(N2CCN(CCO)CC2)n1 [Dasatinib] + C[C@]1(O)C[C@@H](c2nc(-c3ccc4ccc(-c5ccccc5)nc4c3)c3c(N)nccn32)C1 [Linsitinib] (partner 1 µM)
In short: as §1

Cell Line: HARA
- relative viability (XMD13-2 + Trametinib; first compound 0.05 µM): 0.667
- relative viability (XMD13-2 + Trametinib; first compound 0.1581 µM): 0.948
- relative viability (XMD13-2 + Trametinib; first compound 0.5 µM): 1.16
- relative viability (XMD13-2 + Trametinib; first compound 1.581 µM): 0.776
- relative viability (XMD13-2 + Trametinib; first compound 5 µM): 0.674
- relative viability (ALW-II-49-7 + Navitoclax; first compound 0.08 µM): 1.22
- relative viability (ALW-II-49-7 + Navitoclax; first compound 0.253 µM): 1.07
- relative viability (ALW-II-49-7 + Navitoclax; first compound 0.8 µM): 1.13
- relative viability (ALW-II-49-7 + Navitoclax; first compound 2.53 µM): 1.15
- relative viability (ALW-II-49-7 + Navitoclax; first compound 8 µM): 1.22
- relative viability (Dasatinib + Pictilisib; first compound 0.005 µM): 0.204
- relative viability (Dasatinib + Pictilisib; first compound 0.01581 µM): 0.259
- relative viability (Dasatinib + Pictilisib; first compound 0.05 µM): 0.346
- relative viability (Dasatinib + Pictilisib; first compound 0.1581 µM): 0.157
- relative viability (Dasatinib + Pictilisib; first compound 0.5 µM): 0.0728
- relative viability (Dasatinib + Linsitinib; first compound 0.005 µM): 0.971
- relative viability (Dasatinib + Linsitinib; first compound 0.01581 µM): 0.67
- relative viability (Dasatinib + Linsitinib; first compound 0.05 µM): 0.516
- relative viability (Dasatinib + Linsitinib; first compound 0.1581 µM): 0.247
- relative viability (Dasatinib + Linsitinib; first compound 0.5 µM): 0.189

Cell Line: HCC-15
- relative viability (XMD13-2 + Trametinib; first compound 0.05 µM): 0.353
- relative viability (XMD13-2 + Trametinib; first compound 0.1581 µM): 0.351
- relative viability (XMD13-2 + Trametinib; first compound 0.5 µM): 0.428
- relative viability (XMD13-2 + Trametinib; first compound 1.581 µM): 0.363
- relative viability (XMD13-2 + Trametinib; first compound 5 µM): 0.344
- relative viability (ALW-II-49-7 + Navitoclax; first compound 0.08 µM): 0.768
- relative viability (ALW-II-49-7 + Navitoclax; first compound 0.253 µM): 0.772
- relative viability (ALW-II-49-7 + Navitoclax; first compound 0.8 µM): 0.695
- relative viability (ALW-II-49-7 + Navitoclax; first compound 2.53 µM): 0.824
- relative viability (ALW-II-49-7 + Navitoclax; first compound 8 µM): 0.729
- relative viability (Dasatinib + Pictilisib; first compound 0.005 µM): 0.69
- relative viability (Dasatinib + Pictilisib; first compound 0.01581 µM): 0.567
- relative viability (Dasatinib + Pictilisib; first compound 0.05 µM): 0.681
- relative viability (Dasatinib + Pictilisib; first compound 0.1581 µM): 0.486
- relative viability (Dasatinib + Pictilisib; first compound 0.5 µM): 0.502
- relative viability (Dasatinib + Linsitinib; first compound 0.005 µM): 0.862
- relative viability (Dasatinib + Linsitinib; first compound 0.01581 µM): 0.773
- relative viability (Dasatinib + Linsitinib; first compound 0.05 µM): 0.766
- relative viability (Dasatinib + Linsitinib; first compound 0.1581 µM): 0.599
- relative viability (Dasatinib + Linsitinib; first compound 0.5 µM): 0.555

Cell Line: HCC-44
- relative viability (XMD13-2 + Trametinib; first compound 0.05 µM): 1.2
- relative viability (XMD13-2 + Trametinib; first compound 0.1581 µM): 1.04
- relative viability (XMD13-2 + Trametinib; first compound 0.5 µM): 1.17
- relative viability (XMD13-2 + Trametinib; first compound 1.581 µM): 1.05
- relative viability (XMD13-2 + Trametinib; first compound 5 µM): 1.05
- relative viability (ALW-II-49-7 + Navitoclax; first compound 0.08 µM): 1.12
- relative viability (ALW-II-49-7 + Navitoclax; first compound 0.253 µM): 0.958
- relative viability (ALW-II-49-7 + Navitoclax; first compound 0.8 µM): 0.988
- relative viability (ALW-II-49-7 + Navitoclax; first compound 2.53 µM): 0.891
- relative viability (ALW-II-49-7 + Navitoclax; first compound 8 µM): 1.06
- relative viability (Dasatinib + Pictilisib; first compound 0.005 µM): 0.517
- relative viability (Dasatinib + Pictilisib; first compound 0.01581 µM): 0.392
- relative viability (Dasatinib + Pictilisib; first compound 0.05 µM): 0.39
- relative viability (Dasatinib + Pictilisib; first compound 0.1581 µM): 0.291
- relative viability (Dasatinib + Pictilisib; first compound 0.5 µM): 0.148
- relative viability (Dasatinib + Linsitinib; first compound 0.005 µM): 0.619
- relative viability (Dasatinib + Linsitinib; first compound 0.01581 µM): 0.51
- relative viability (Dasatinib + Linsitinib; first compound 0.05 µM): 0.669
- relative viability (Dasatinib + Linsitinib; first compound 0.1581 µM): 0.27
- relative viability (Dasatinib + Linsitinib; first compound 0.5 µM): 0.131

Cell Line: HCC-78
- relative viability (XMD13-2 + Trametinib; first compound 0.05 µM): 0.842
- relative viability (XMD13-2 + Trametinib; first compound 0.1581 µM): 0.71
- relative viability (XMD13-2 + Trametinib; first compound 0.5 µM): 0.834
- relative viability (XMD13-2 + Trametinib; first compound 1.581 µM): 0.833
- relative viability (XMD13-2 + Trametinib; first compound 5 µM): 0.792
- relative viability (ALW-II-49-7 + Navitoclax; first compound 0.08 µM): 1.01
- relative viability (ALW-II-49-7 + Navitoclax; first compound 0.253 µM): 0.682
- relative viability (ALW-II-49-7 + Navitoclax; first compound 0.8 µM): 0.787
- relative viability (ALW-II-49-7 + Navitoclax; first compound 2.53 µM): 0.744
- relative viability (ALW-II-49-7 + Navitoclax; first compound 8 µM): 0.641
- relative viability (Dasatinib + Pictilisib; first compound 0.005 µM): 0.185
- relative viability (Dasatinib + Pictilisib; first compound 0.01581 µM): 0.212
- relative viability (Dasatinib + Pictilisib; first compound 0.05 µM): 0.183
- relative viability (Dasatinib + Pictilisib; first compound 0.1581 µM): 0.159
- relative viability (Dasatinib + Pictilisib; first compound 0.5 µM): 0.178
- relative viability (Dasatinib + Linsitinib; first compound 0.005 µM): 0.376
- relative viability (Dasatinib + Linsitinib; first compound 0.01581 µM): 0.447
- relative viability (Dasatinib + Linsitinib; first compound 0.05 µM): 0.408
- relative viability (Dasatinib + Linsitinib; first compound 0.1581 µM): 0.363
- relative viability (Dasatinib + Linsitinib; first compound 0.5 µM): 0.24

Cell Line: HCC-366
- relative viability (XMD13-2 + Trametinib; first compound 0.05 µM): 0.413
- relative viability (XMD13-2 + Trametinib; first compound 0.1581 µM): 0.334
- relative viability (XMD13-2 + Trametinib; first compound 0.5 µM): 0.412
- relative viability (XMD13-2 + Trametinib; first compound 1.581 µM): 0.286
- relative viability (XMD13-2 + Trametinib; first compound 5 µM): 0.331
- relative viability (ALW-II-49-7 + Navitoclax; first compound 0.08 µM): 1.04
- relative viability (ALW-II-49-7 + Navitoclax; first compound 0.253 µM): 1.29
- relative viability (ALW-II-49-7 + Navitoclax; first compound 0.8 µM): 1.08
- relative viability (ALW-II-49-7 + Navitoclax; first compound 2.53 µM): 1.11
- relative viability (ALW-II-49-7 + Navitoclax; first compound 8 µM): 1.11
- relative viability (Dasatinib + Pictilisib; first compound 0.005 µM): 0.0952
- relative viability (Dasatinib + Pictilisib; first compound 0.01581 µM): 0.074
- relative viability (Dasatinib + Pictilisib; first compound 0.05 µM): 0.0543
- relative viability (Dasatinib + Pictilisib; first compound 0.1581 µM): 0.0636
- relative viability (Dasatinib + Pictilisib; first compound 0.5 µM): 0.0661
- relative viability (Dasatinib + Linsitinib; first compound 0.005 µM): 0.122
- relative viability (Dasatinib + Linsitinib; first compound 0.01581 µM): 0.0525
- relative viability (Dasatinib + Linsitinib; first compound 0.05 µM): 0.067
- relative viability (Dasatinib + Linsitinib; first compound 0.1581 µM): 0.0321
- relative viability (Dasatinib + Linsitinib; first compound 0.5 µM): 0.04

Cell Line: IA-LM
- relative viability (ALW-II-49-7 + Navitoclax; first compound 0.08 µM): 0.84
- relative viability (ALW-II-49-7 + Navitoclax; first compound 0.253 µM): 0.551
- relative viability (ALW-II-49-7 + Navitoclax; first compound 0.8 µM): 0.689
- relative viability (ALW-II-49-7 + Navitoclax; first compound 2.53 µM): 0.213
- relative viability (ALW-II-49-7 + Navitoclax; first compound 8 µM): 0.0967
- relative viability (Dasatinib + Pictilisib; first compound 0.005 µM): 0.416
- relative viability (Dasatinib + Pictilisib; first compound 0.01581 µM): 0.312
- relative viability (Dasatinib + Pictilisib; first compound 0.05 µM): 0.378
- relative viability (Dasatinib + Pictilisib; first compound 0.1581 µM): 0.276
- relative viability (Dasatinib + Pictilisib; first compound 0.5 µM): 0.257
- relative viability (Dasatinib + Linsitinib; first compound 0.005 µM): 0.787
- relative viability (Dasatinib + Linsitinib; first compound 0.01581 µM): 0.732
- relative viability (Dasatinib + Linsitinib; first compound 0.05 µM): 0.65
- relative viability (Dasatinib + Linsitinib; first compound 0.1581 µM): 0.712
- relative viability (Dasatinib + Linsitinib; first compound 0.5 µM): 0.475

Cell Line: LCLC-103H
- relative viability (XMD13-2 + Trametinib; first compound 0.05 µM): 0.66
- relative viability (XMD13-2 + Trametinib; first compound 0.1581 µM): 0.677
- relative viability (XMD13-2 + Trametinib; first compound 0.5 µM): 0.742
- relative viability (XMD13-2 + Trametinib; first compound 1.581 µM): 0.738
- relative viability (XMD13-2 + Trametinib; first compound 5 µM): 0.76
- relative viability (Dasatinib + Pictilisib; first compound 0.005 µM): 0.665
- relative viability (Dasatinib + Pictilisib; first compound 0.01581 µM): 0.514
- relative viability (Dasatinib + Pictilisib; first compound 0.05 µM): 0.515
- relative viability (Dasatinib + Pictilisib; first compound 0.1581 µM): 0.286
- relative viability (Dasatinib + Pictilisib; first compound 0.5 µM): 0.17
- relative viability (Dasatinib + Linsitinib; first compound 0.005 µM): 1.07
- relative viability (Dasatinib + Linsitinib; first compound 0.01581 µM): 0.961
- relative viability (Dasatinib + Linsitinib; first compound 0.05 µM): 0.88
- relative viability (Dasatinib + Linsitinib; first compound 0.1581 µM): 0.568
- relative viability (Dasatinib + Linsitinib; first compound 0.5 µM): 0.388
